The values below come from patent publication US20100104659A1, “BENZOPYRANOPYRAZOLES” (priority 2006, published 2010).

The test system of this assay is RKO human colon adenocarcinoma cells (RKOp27 subclone), proliferating. The experiment in a line: Alamar Blue cell viability assay, RKO p27 uninduced (proliferating). The conditions noted are these: RKOp27, 72 h, read-out: −log EC50 [mol/l] RKO p27 uninduced (proliferating), anti-proliferative/cytotoxic activity (converted). On the technique in general: Resazurin is reduced to fluorescent resorufin, in cell work by metabolically active cells.
Protocol: The anti-proliferative/cytotoxic activity of the compounds described herein can be tested on subclones of RKO human colon adenocarcinoma cells (Schmidt et al., Oncogene 19, 2423-2429; 2000) using the Alamar Blue cell viability assay (described in O'Brien et al. Eur J Biochem 267, 5421-5426, 2000). The compounds are dissolved as 10 mM solutions in DMSO and subsequently diluted in semi-logarithmic steps. DMSO dilutions are further diluted 1:100 into Dulbecco's modified Eagle's medium (DMEM) containing 10% fetal calf serum to a final concentration twice as much as the final concentration in the test. RKO subclones are seeded into 96 well flat bottom plates at a density of 4000 cells per well in a volume of 50 μl per well. 24 hours after seeding the 50 μl each of the compound dilutions in DMEM medium are added into each well of the 96 well plate. Each compound dilution is tested as triplicates. Wells containing untreated control cells are filled with 50 μl DMEM medium containing 1% DMSO. The cells are then incubated with the substances for 72 hours at 37° C. in a humidified atmosphere containing 5% carbon dioxide. To determine the viability of the cells, 10 μl of an Alamar Blue solution (Biosource) are added and the fluorescence is measured at an extinction of 544 nm and an emission of 590 nm. For the calculation of the cell viability the emission value from untreated cells is set as 100% viability and the emission rates of treated cells are set in relation to the values of untreated cells. Viabilities are expressed as % values. The Graphpad Prism program (GraphPad Software, Inc) is used for the calculation of EC50 values for anti-proliferative/cytotoxic activity out of the obtained dose-response curves.
Each compound dilution is tested as triplicates. Wells containing untreated control cells are filled with 50 μl DMEM medium containing 1% DMSO. The cells are then incubated with the substances for 72 hours at 37° C. in a humidified atmosphere containing 5% carbon dioxide. To determine the viability of the cells, 10 μl of an Alamar Blue solution (Biosource) are added and the fluorescence is measured at an extinction of 544 nm and an emission of 590 nm. For the calculation of the cell viability the emission value from untreated cells is set as 100% viability and the emission rates of treated cells are set in relation to the values of untreated cells. Viabilities are expressed as % values. The Graphpad Prism program is used for the calculation of EC50 values out of the obtained dose-response curves. Viability is compared of proliferating cells grown in the absence of the inducer Ponasterone A, versus viability of cells arrested by the expression of ectopic p27Kip1 induced by Ponasterone A.
As for `CN(CCNC1CCC1)C(=O)N1N=C2c3cc(F)ccc3OC[C@H]2[C@H]1c1ccccc1` (racemic) [Example 44, (3SR,3aSR)-8-Fluoro-3-phenyl-3a,4-dihydro-3H-chromeno[4,3-c]pyrazole-2-carboxylic acid (2-cyclobutylamino-ethyl)-methyl-amide], the EC50 was not above 100 nM.
Next, `CCN(CC)CCN(C)C(=O)N1N=C2c3cc(F)ccc3OC[C@H]2[C@H]1c1ccccc1` (racemic) [Example 45, (3SR,3aSR)-8-Fluoro-3-phenyl-3a,4-dihydro-3H-chromeno[4,3-c]pyrazole-2-carboxylic acid (2-diethylamino-ethyl)-methyl-amide]: not above 100 nM; `CCN(CC)CCCN(C)C(=O)N1N=C2c3cc(F)ccc3OC[C@H]2[C@H]1c1ccccc1` (racemic) [Example 46, (3SR,3aSR)-8-Fluoro-3-phenyl-3a,4-dihydro-3H-chromeno[4,3-c]pyrazole-2-carboxylic acid (3-diethylamino-propyl)-methyl-amide]: not above 100 nM.
As to `COCCNCCN(C)C(=O)N1N=C2c3cc(F)ccc3OC[C@H]2[C@H]1c1ccccc1` (racemic) [Example 47, (3SR,3aSR)-8-Fluoro-3-phenyl-3a,4-dihydro-3H-chromeno[4,3-c]pyrazole-2-carboxylic acid [2-(2-methoxy-ethylamino)-ethyl]-methyl-amide], the EC50 was 100 to 1000 nM.
Next, `COCCNCCCN(C)C(=O)N1N=C2c3cc(F)ccc3OC[C@H]2[C@H]1c1ccccc1` (racemic) [Example 48, (3SR,3aSR)-8-Fluoro-3-phenyl-3a,4-dihydro-3H-chromeno[4,3-c]pyrazole-2-carboxylic acid [3-(2-methoxy-ethylamino)-propyl]-methyl-amide]: not above 100 nM; `CN(CCO)CCN(C)C(=O)N1N=C2c3cc(F)ccc3OC[C@H]2[C@H]1c1ccccc1` (racemic) [Example 49, (3SR,3aSR)-8-Fluoro-3-phenyl-3a,4-dihydro-3H-chromeno[4,3-c]pyrazole-2-carboxylic acid {2-[(2-hydroxy-ethyl)-methyl-amino]-ethyl}-methyl-amide]: not above 100 nM.
Next, `CN(CCO)CCCN(C)C(=O)N1N=C2c3cc(F)ccc3OC[C@H]2[C@H]1c1ccccc1` (racemic) [Example 50, (3SR,3aSR)-8-Fluoro-3-phenyl-3a,4-dihydro-3H-chromeno[4,3-c]pyrazole-2-carboxylic acid {3-[(2-hydroxy-ethyl)-methyl-amino]-propyl}-methyl-amide]: not above 100 nM; `C=CCNCCN(C)C(=O)N1N=C2c3cc(F)ccc3OC[C@H]2[C@H]1c1ccccc1` (racemic) [Example 51, (3SR,3aSR)-8-Fluoro-3-phenyl-3a,4-dihydro-3H-chromeno[4,3-c]pyrazole-2-carboxylic acid (2-allylamino-ethyl)-methyl-amide]: 100 to 1000 nM; `C=CCNCCCN(C)C(=O)N1N=C2c3cc(F)ccc3OC[C@H]2[C@H]1c1ccccc1` (racemic) [Example 52, (3SR,3aSR)-8-Fluoro-3-phenyl-3a,4-dihydro-3H-chromeno[4,3-c]pyrazole-2-carboxylic acid (3-allylamino-propyl)-methyl-amide]: 100 to 1000 nM.
The value for `CCN(C)CCN(C)C(=O)N1N=C2c3cc(F)ccc3OC[C@H]2[C@H]1c1ccccc1` (racemic) [Example 53, (3SR,3aSR)-8-Fluoro-3-phenyl-3a,4-dihydro-3H-chromeno[4,3-c]pyrazole-2-carboxylic acid [2-(ethyl-methyl-amino)-ethyl]-methyl-amide] was not above 100 nM; that for `CN(CCCNCC1CC1)C(=O)N1N=C2c3cc(F)ccc3OC[C@H]2[C@H]1c1ccccc1` (racemic) [Example 54, (3SR,3aSR)-8-Fluoro-3-phenyl-3a,4-dihydro-3H-chromeno[4,3-c]pyrazole-2-carboxylic acid [3-(cyclopropylmethyl-amino)-propyl]-methyl-amide] was 100 to 1000 nM.
For the compound `CCN(C)CCCN(C)C(=O)N1N=C2c3cc(F)ccc3OC[C@H]2[C@H]1c1ccccc1` (racemic) [Example 55, (3SR,3aSR)-8-Fluoro-3-phenyl-3a,4-dihydro-3H-chromeno[4,3-c]pyrazole-2-carboxylic acid [3-(ethyl-methyl-amino)-propyl]-methyl-amide], the EC50 was not above 100 nM.
As to `CCN(CCCN(C)C(=O)N1N=C2c3cc(F)ccc3OC[C@H]2[C@H]1c1ccccc1)CCOC` (racemic) [Example 56, (3SR,3aSR)-8-Fluoro-3-phenyl-3a,4-dihydro-3H-chromeno[4,3-c]pyrazole-2-carboxylic acid {3-[ethyl-(2-methoxy-ethyl)-amino]-propyl}-methyl-amide], the EC50 is 100 to 1000 nM.
The value for `CCN(CCOC)CCN(C)C(=O)N1N=C2c3cc(F)ccc3OC[C@H]2[C@H]1c1ccccc1` (racemic) [Example 57, (3SR,3aSR)-8-Fluoro-3-phenyl-3a,4-dihydro-3H-chromeno[4,3-c]pyrazole-2-carboxylic acid {2-[ethyl-(2-methoxy-ethyl)-amino]-ethyl}-methyl-amide] was 100 to 1000 nM; that for `CCN(CCO)CCN(C)C(=O)N1N=C2c3cc(F)ccc3OC[C@@H]2[C@@H]1c1ccccc1` (racemic) [Example 58, (3RS,3aRS)-8-Fluoro-3-phenyl-3a,4-dihydro-3H-chromeno[4,3-c]pyrazole-2-carboxylic acid {2-[ethyl-(2-hydroxy-ethyl)-amino]-ethyl}-methyl-amide] was not above 100 nM.
Next, `CCN(CCO)CCCN(C)C(=O)N1N=C2c3cc(F)ccc3OC[C@@H]2[C@@H]1c1ccccc1` (racemic) [Example 59, (3RS,3aRS)-8-Fluoro-3-phenyl-3a,4-dihydro-3H-chromeno[4,3-c]pyrazole-2-carboxylic acid {3-[ethyl-(2-hydroxy-ethyl)-amino]-propyl}-methyl-amide]: not above 100 nM; `CN(CCNC1CC1)C(=O)N1N=C2c3cc(F)ccc3OC[C@H]2[C@H]1c1ccccc1` (racemic) [Example 60, (3SR,3aSR)-8-Fluoro-3-phenyl-3a,4-dihydro-3H-chromeno[4,3-c]pyrazole-2-carboxylic acid (2-cyclopropylamino-ethyl)-methyl-amide]: 100 to 1000 nM.
The value for `CCNCCN(C)C(=O)N1N=C2c3cc(F)ccc3OC[C@H]2[C@H]1c1ccccc1` (racemic) [Example 62, (3SR,3aSR)-8-Fluoro-3-phenyl-3a,4-dihydro-3H-chromeno[4,3-c]pyrazole-2-carboxylic acid (2-ethylamino-ethyl)-methyl-amide] was 100 to 1000 nM.
For the compound `C=CCN(C)CCN(C)C(=O)N1N=C2c3cc(F)ccc3OC[C@H]2[C@H]1c1ccccc1` (racemic) [Example 63, (3SR,3aSR)-8-Fluoro-3-phenyl-3a,4-dihydro-3H-chromeno[4,3-c]pyrazole-2-carboxylic acid [2-(allyl-methyl-amino)-ethyl]-methyl-amide], the EC50 is 100 to 1000 nM.
Next, `C#CCN(C)CCN(C)C(=O)N1N=C2c3cc(F)ccc3OC[C@H]2[C@H]1c1ccccc1` (racemic) [Example 64, (3SR,3aSR)-8-Fluoro-3-phenyl-3a,4-dihydro-3H-chromeno[4,3-c]pyrazole-2-carboxylic acid methyl-[2-(methyl-prop-2-ynyl-amino)-ethyl]-amide]: 100 to 1000 nM; `CC1CCN(CCN(C)C(=O)N2N=C3c4cc(F)ccc4OC[C@H]3[C@H]2c2ccccc2)CC1` (racemic) [Example 65, (3SR,3aSR)-8-Fluoro-3-phenyl-3a,4-dihydro-3H-chromeno[4,3-c]pyrazole-2-carboxylic acid methyl-[2-(4-methyl-piperidin-1-yl)-ethyl]-amide]: 100 to 1000 nM.
Next, `CC1CCN(CCCN(C)C(=O)N2N=C3c4cc(F)ccc4OC[C@H]3[C@H]2c2ccccc2)CC1` (racemic) [Example 66, (3SR,3aSR)-8-Fluoro-3-phenyl-3a,4-dihydro-3H-chromeno[4,3-c]pyrazole-2-carboxylic acid methyl-[3-(4-methyl-piperidin-1-yl)-propyl]-amide]: not above 100 nM; `CN(C)C(=O)N1N=C2c3cc(F)ccc3OC[C@H]2[C@@H]1c1cccc(O)c1` (single isomer, unassigned) [Example 2b, (−)-cis-8-Fluoro-3-(3-hydroxy-phenyl)-3a,4-dihydro-3H-chromeno[4,3-c]pyrazole-2-carboxylic acid dimethylamide]: not above 100 nM; `CN1CCC(N(C)C(=O)N2N=C3c4cc(F)ccc4OC[C@@H]3[C@@H]2c2cccc(O)c2)CC1` (single isomer, unassigned) [Example 3, (3RS,3aRS)-8-Fluoro-3-(3-hydroxy-phenyl)-3a,4-dihydro-3H-chromeno[4,3-c]pyrazole-2-carboxylic acid methyl-(1-methyl-piperidin-4-yl)-amide]: not above 100 nM.
The value for `CN(CCN)C(=O)N1N=C2c3cc(F)ccc3OC[C@H]2[C@H]1c1ccccc1` (stereo in doubt) [Example 18a, (3SR,3aSR)-8-Fluoro-3-phenyl-3a,4-dihydro-3H-chromeno[4,3-c]pyrazole-2-carboxylic acid (2-amino-ethyl)-methyl-amide] was not above 100 nM.
With `CN1CCC(N(C)C(=O)N2N=C3c4cc(F)ccc4OC[C@H]3[C@H]2c2ccccc2)CC1` [Example 9a, (3S,3aS)-8-Fluoro-3-phenyl-3a,4-dihydro-3H-chromeno[4,3-c]pyrazole-2-carboxylic acid methyl-(1-methyl-piperidin-4-yl)-amide], the EC50 was not above 100 nM.
Next, `CN(C(=O)N1N=C2c3cc(F)ccc3OC[C@H]2[C@H]1c1ccccc1)C1CCNCC1` [Example 16a, (3S,3aS)-8-Fluoro-3-phenyl-3a,4-dihydro-3H-chromeno[4,3-c]pyrazole-2-carboxylic acid methyl-piperidin-4-yl-amide]: not above 100 nM.
Next, `CN(C(=O)N1N=C2c3cc(F)ccc3OC[C@H]2[C@H]1c1cccc(O)c1)C1CCNCC1` [Example 27a, (3S,3aS)-8-Fluoro-3-(3-hydroxy-phenyl)-3a,4-dihydro-3H-chromeno[4,3-c]pyrazole-2-carboxylic acid methyl-piperidin-4-yl-amide]: not above 100 nM.
